Laboratory results from article PMC8652888, “Angiogenesis, Anti-Tumor, and Anti-Metastatic Activity of Novel α-Substituted Hetero-Aromatic Chalcone Hybrids as Inhibitors of Microtubule Polymerization” (Frontiers in Chemistry, 2021).
Read-outs that look alike come from different tables or passages of the source.

Assays:
[1] = test system: U937; test: Antiproliferative activity, CCK-8 assay; assay type: cell-based; details: Homo sapiens, U-937
Description: (§1) The synthesized compounds were first evaluated for their cytotoxic effect on MCF-7 (human breast adenocarcinoma), U937 (histiocytic lymphoma cancer), HepG2 (human liver cancer) cells, and MGC-803 (human gastric cancer) using the SRB and CCK-8 assay. As reference compounds CA-4 and colchicine were included.
(§2) The primary tumor cells were purchased from a professional biomedical company. First, the primary tumor cells were incubated in a cell culture incubator at 37°C and 5% CO2. After the cell fusion reached 85%–95%, subculture was performed, and the tumor cells obtained at this time were used for subsequent related experiments. The CCK-8 method was used to inhibit the proliferation of U937 tumor cells, and the SRB method was used to inhibit the proliferation of MCF7 and HepG2 tumor cells.
The cells in the logarithmic growth phase were seeded in a 96-well plate at 8,000/well, and the drug-containing medium and cell suspension were added to the well. Three wells were added with the blank medium as the blank group. The 96-well plate was incubated for 72 h in a 37°C, 5% CO2 incubator. The 10 μl of CCK-8 dye solution was added to each well, and the incubation continued for 3–4 h.

[2] = test system: MCF-7; test: Antiproliferative activity, SRB assay; assay type: cell-based, human; details: Homo sapiens;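 further: proliferation of MCF7 cells quantified by sulforhodamine B staining, with optical density read at 560 nm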
[3] = test system: HepG2; test: Antiproliferative activity, SRB assay; assay type: cell-based, human; details: Homo sapiens, HepG2
Description: as §1, §2
Cells were distributed into 96-well plates with a density of 3 × 10^3–4 × 10^3 cells per well and incubated for 24 h in a 5% CO2 incubator at 37°C, followed by treatment with study compounds at different concentrations at 37°C for 72 h. One hundred microliters of 10% (w/v) trichloroacetic acid was added to each well, fixed at 4°C for 30 min, and dried at 65°C. Then 100 μl of 0.4% SRB was added to each well and stained on a shaker for 20 min at room temperature. The excess dye solution was washed with newly prepared 1% glacial acetic acid and dried at 65°C. One hundred fifty microliters of 10 mM unbuffered Trisbase was added to each well of the plate and shaken for 5 min to dissolve the dye. The microplate reader measured the optical density (OD) at a wavelength of 560 nm.

[4] = test system: MGC-803; test: Antiproliferative activity (SRB and CCK-8 assay); assay type: cell-based; details: Homo sapiens
Description: as §1

[5] = 72 h, triplicate, mean ± SD, read-out: IC50 ± SD, U937
[6] = MCF7, 72 h, 72 h, triplicate, mean ± SD, read-out: IC50 ± SD, MCF-7
[7] = MCF7, supplement raw data, read-out: IC50/MCF
[8] = 72 h, triplicate, mean ± SD, read-out: IC50 ± SD, HepG2
[9] = supplement raw data, read-out: IC50/MGC
[10] = triplicate, mean ± SD, read-out: IC50 ± SD, MGC-803
[11] = supplement raw data, read-out: IC50/U937
[12] = supplement raw data of table 2, read-out: IC50(U937)

SMILES | IC50 [1, 5] [µM] | IC50 [2, 6] [nM] | IC50 [2, 7] [nM] | IC50 [3, 8] [µM] | IC50 [4, 9] [nM] | IC50 [4, 10] [nM] | melting point [°C] | IC50 [1, 11] [µM] | IC50 [1, 12] [µM] | IC50 ([3]; supplement raw data of table 2, read-out: IC50(Hepg2)) [µM]
COc1cc(C(=O)/C=C/c2c(C)[nH]c3ccccc23)cc(OC)c1OC [Compound 6b, (E)-3-(2-methyl-1H-indol-3-yl)-1-(3,4,5-trimethoxyphenyl)prop-2-en-1-one] | > 20 | 281 ± 22 | 281 | 14.11 ± 0.117 | 190 | 190 ± 2 | 236.7 to 238.2 | – | – | –
COc1cc(C(=O)/C=C/c2c(-c3ccccc3)[nH]c3ccccc23)cc(OC)c1OC [Compound 6c, (E)-3-(2-phenyl-1H-indol-3-yl)-1-(3,4,5-trimethoxyphenyl)prop-2-en-1-one] | 0.601 ± 0.267 | 313 ± 17 | 313 | 1.08 ± 0.092 | – | 104 ± 1 | 60.2 to 61.7 | 0.601 | – | –
COc1cc(C(=O)/C=C/c2c[nH]c3cc(Br)ccc23)cc(OC)c1OC [Compound 6g, (E)-3-(6-bromo-1H-indol-3-yl)-1-(3,4,5-trimethoxyphenyl)prop-2-en-1-one] | > 20 | 380 ± 20 | 380 | 18.1 ± 0.295 | 70.6 | 71 ± 2 | 216.4 to 217.6 | – | – | –
COc1cc(C(=O)/C=C/c2cc3ccccc3o2)cc(OC)c1OC [Compound 6h, (E)-3-(benzofuran-2-yl)-1-(3,4,5-trimethoxyphenyl)prop-2-en-1-one] | > 20 | 14600 ± 368 | – | > 20 | – | 8780 ± 309 | 79.5 to 80.3 | – | – | –
COc1cc(C(=O)/C=C/c2coc3ccccc23)cc(OC)c1OC [Compound 6j, (E)-3-(benzofuran-3-yl)-1-(3,4,5-trimethoxyphenyl)prop-2-en-1-one] | 0.786 ± 0.346 | 988 ± 6 | 988 | 4.82 ± 0.102 | 395 | 395 ± 15 | 117.5 to 120.8 | 0.786 | – | –
COc1cc(C(=O)/C=C/c2ccc3oc4ccccc4c3c2)cc(OC)c1OC [Compound 6l, (E)-3-[dibenzo (b,d)furan-2-yl]1-(3,4,5-trimethoxyphenyl)prop-2-en-1-one] | 2.08 ± 0.252 | 810 ± 68 | 810 | 3.27 ± 0.065 | 326 | 326 ± 16 | 56.5 to 57.6 | – | – | –
COc1cc(C(=O)/C(C#N)=C/c2c(-c3ccccc3)[nH]c3ccccc23)cc(OC)c1OC [Compound 8c, (E)-2-((l2-azaneylidene)-l3-methyl)-3-(2-phenyl-1H-indol-3-yl)-1-(3,4,5-trimethoxyphenyl)prop-2-en-1-one] | 4.49 ± 0.433 | 2100 ± 270 | – | 14.1 ± 0.386 | – | – | 253.8 to 255.9 | – | – | –
COC(=O)c1cccc2[nH]cc(/C=C(\C#N)C(=O)c3cc(OC)c(OC)c(OC)c3)c12 [Compound 8d, methyl(E)-3-(2-cyano-3-oxo-3-(3,4,5-trimethoxyphenyl)prop-1-en-1-yl)-1H-indole-4-carboxylate] | 8.58 ± 0.178 | > 20000 | – | > 20 | – | – | 176.7 to 178.2 | – | – | –
COC(=O)c1ccc2[nH]cc(/C=C(\C#N)C(=O)c3cc(OC)c(OC)c(OC)c3)c2c1 [Compound 8e, methyl(E)-3-(2-cyano-3-oxo-3-(3,4,5-trimethoxyphenyl)prop-1-en-1-yl)-1H-indole-5-carboxylate] | > 20 | > 20000 | – | > 20 | – | – | > 260 | – | – | –
COC(=O)c1ccc2c(/C=C(\C#N)C(=O)c3cc(OC)c(OC)c(OC)c3)c[nH]c2c1 [Compound 8f, methyl(E)-3-(2-cyano-3-oxo-3-(3,4,5-trimethoxyphenyl)prop-1-en-1-yl)-1H-indole-6-carboxylate] | > 20 | > 20000 | – | > 20 | – | – | 239.7 to 241 | – | – | –
COc1cc(C(=O)/C(C#N)=C/c2c[nH]c3cc(Br)ccc23)cc(OC)c1OC [Compound 8g, (E)-3-(6-bromo-1H-indol-3-yl)-2-(3,4,5-trimethoxybenzoyl)acrylonitrile] | 2.51 ± 0.029 | 2161 ± 9 | – | 1.43 ± 0.049 | – | – | 266.5 to 268.2 | – | – | –
COc1cc(C(=O)/C(C#N)=C/c2cc3ccccc3o2)cc(OC)c1OC [Compound 8h, (E)-3-(benzofuran-2-yl)-2-(3,4,5-trimethoxybenzoyl)acrylonitrile] | > 20 | > 20000 | – | > 20 | – | – | 168.3 to 169.5 | – | – | –
COc1cc(C(=O)/C(C#N)=C/c2oc3ccccc3c2C)cc(OC)c1OC [Compound 8i, (E)-3-(3-methylbenzofuran-2-yl)-2-(3,4,5-trimethoxybenzoyl)acrylonitrile] | > 20 | > 20000 | – | > 20 | – | – | 136.7 to 138.5 | – | – | –
COc1cc(C(=O)/C(C#N)=C/c2coc3ccccc23)cc(OC)c1OC [Compound 8j, (E)-3-(benzofuran-3-yl)-2-(3,4,5-trimethoxybenzoyl)acrylonitrile] | > 20 | > 20000 | – | > 20 | – | – | 176.5 to 178.4 | – | – | –
COc1cc(C(=O)/C(C#N)=C/c2cc3c(cc2[N+](=O)[O-])OCO3)cc(OC)c1OC [Compound 8k, (E)-3-[6-nitrobenzo(d)(1,3)dioxol-5-yl]-2-(3,4,5-trimethoxybenzoyl)acrylonitrile] | 14.31 ± 0.127 | 16430 ± 42 | – | 18.74 ± 0.035 | – | – | 160.1 to 163.8 | – | 14.3 | 18.7
COc1cc(C(=O)/C(C#N)=C/c2ccc3oc4ccccc4c3c2)cc(OC)c1OC [Compound 8l, (E)-3-[dibenzo (b,d)furan-2-yl]-2-(3,4,5-trimethoxybenzoyl)acrylonitrile] | > 20 | > 20000 | – | > 20 | – | – | 181.3 to 182.6 | – | – | –
COc1cc(C(=O)/C(C#N)=C/c2ccc3occc3c2)cc(OC)c1OC [Compound 8m, (E)-3-(benzofuran-5-yl)-2-(3,4,5-trimethoxybenzoyl)acrylonitrile] | > 20 | > 20000 | – | > 20 | – | – | 169.7 to 172.1 | – | – | –
COc1cc(C(=O)/C(C#N)=C/c2cc3ccccc3s2)cc(OC)c1OC [Compound 8o, (E)-3-[benzo(b)thiophen-2-yl]-2-(3,4,5-trimethoxybenzoyl)acrylonitrile] | > 20 | 14740 ± 141 | – | 1.701 ± 0.013 | – | – | 187.5 to 189.3 | – | – | –
COc1cc(C(=O)/C(C#N)=C/c2csc3ccccc23)cc(OC)c1OC [Compound 8p, (E)-3-[benzo(b)thiophen-3-yl]-2-(3,4,5-trimethoxybenzoyl)acrylonitrile] | > 20 | > 20000 | – | > 20 | – | – | 201.8 to 203.1 | – | – | –
COc1cc(C(=O)/C(C#N)=C/c2ccc3sc4ccccc4c3c2)cc(OC)c1OC [Compound 8q, (E)-3-[dibenzo (b,d)thiophen-2-yl]-2-(3,4,5-trimethoxybenzoyl)acrylonitrile] | 52.3 ± 3.66 | > 20000 | – | > 20 | – | – | 199.7 to 201.1 | – | 52.3 | –
COc1cc(C(=O)/C(C#N)=C/c2nc3ccccc3n2C)cc(OC)c1OC [Compound 8r, (E)-3-[1-methyl-1H-benzo (d)imidazol-2-yl]-2-(3,4,5-trimethoxybenzoyl)acrylonitrile] | 24.9 ± 2.02 | > 20000 | – | > 20 | – | – | 201.8 to 203.1 | – | 24.9 | –
COc1cc(C(=O)/C(C#N)=C/c2cccc3c2OCO3)cc(OC)c1OC [Compound 8s, (E)-3-[benzo(d)(1,3)dioxol-4-yl]-2-(3,4,5-trimethoxybenzoyl)acrylonitrile] | > 20 | > 20000 | – | > 20 | – | – | 176.3 to 177.8 | – | – | –
COc1cc(C(=O)/C(C#N)=C/c2cc3c(cc2Br)OCO3)cc(OC)c1OC [Compound 8t, (E)-3-[6-bromobenzo(d)(1,3)dioxol-5-yl]-2-(3,4,5-trimethoxybenzoyl)acrylonitrile] | > 20 | > 20000 | – | > 20 | – | – | 207.1 to 209 | – | – | –
